According to the supplement of paper PMC10307832:

Key:
Assay in all cases: relative viability (nuclei count vs DMSO), 5 days (fraction); higher = more cells survive
SW 1573 = system: SW 1573
In short: (§1)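 For relative viability, nuclei counts in treated wells were divided by those in vehicle wells. Lung cancer cell lines had been pin-tool dosed in 1536-well plates the day after seeding and cultured for 5 days, then fixed and stained in one step (final 0.05% Triton X-100, 1% formaldehyde, 1 ug/ml Hoechst) and imaged at 4×. Doses were one drug alone or a fixed anchor-drug dose plus five library-drug doses (not always all listed) in √10 steps, and values are duplicate-plate medians.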

NCI-H1734 = system: NCI-H1734
In short: as §1

NCI-H522 = system: NCI-H522
In short: as §1

NCI-H2342 = system: NCI-H2342
In short: as §1

RERF-LC-KJ = system: RERF-LC-KJ
In short: as §1

NCI-H2228 = system: NCI-H2228
In short: as §1

NCI-H1915 = system: NCI-H1915
In short: as §1

HOP-62 = system: HOP-62
In short: as §1

PC-3 [JPC-3] = system: PC-3 [JPC-3]
In short: as §1

HCC-78 = system: HCC-78
In short: as §1

NCI-H1975 = system: NCI-H1975
In short: as §1

NCI-H1792 = system: NCI-H1792
In short: as §1

NCI-H1755 = system: NCI-H1755
In short: as §1

NCI-H2126 = system: NCI-H2126
In short: as §1

HCC-15 = system: HCC-15
In short: as §1

NCI-H358 = system: NCI-H358
In short: as §1

LXF-289 = system: LXF-289
In short: as §1

NCI-H647 = system: NCI-H647
In short: as §1

LC-2-ad = system: LC-2-ad
In short: as §1

A-427 = system: A-427
In short: as §1

SK-LU-1 = system: SK-LU-1
In short: as §1

NCI-H2347 = system: NCI-H2347
In short: as §1

Compound `COc1nc(C)cnc1NS(=O)(=O)c1cccnc1-c1ccc(-c2nnco2)cc1` [Zibotentan] + COc1cccc2cc(-c3nc([C@H]4CC[C@H](C(=O)O)CC4)n4ncnc(N)c34)[nH]c12 [OSI-027] (partner 0.5 µM) has a relative viability (SW 1573; first compound 0.08 µM) of 0.651, a relative viability (SW 1573; first compound 0.8 µM) of 0.699 and a relative viability (SW 1573; first compound 2.53 µM) of 0.659. For the same compound, the relative viability (NCI-H1734; first compound 0.08 µM) was 0.655, the relative viability (NCI-H1734; first compound 0.253 µM) was 0.558 and the relative viability (NCI-H1734; first compound 0.8 µM) was 0.604. It also gave a relative viability (NCI-H1734; first compound 2.53 µM) of 0.668, a relative viability (NCI-H522; first compound 0.08 µM) of 0.704 and a relative viability (NCI-H522; first compound 0.253 µM) of 0.717. The relative viability (NCI-H522; first compound 0.8 µM) was 0.684, the relative viability (NCI-H522; first compound 2.53 µM) was 0.835 and the relative viability (NCI-H2342; first compound 0.08 µM) was 0.621. It also gave a relative viability (NCI-H2342; first compound 0.253 µM) of 0.559, a relative viability (NCI-H2342; first compound 0.8 µM) of 0.576 and a relative viability (NCI-H2342; first compound 2.53 µM) of 0.758. It also gave a relative viability (RERF-LC-KJ; first compound 0.08 µM) of 0.609, a relative viability (RERF-LC-KJ; first compound 0.8 µM) of 0.521 and a relative viability (RERF-LC-KJ; first compound 2.53 µM) of 0.646. The relative viability (NCI-H2228; first compound 0.08 µM) was 0.623, the relative viability (NCI-H2228; first compound 0.253 µM) was 0.571 and the relative viability (NCI-H2228; first compound 0.8 µM) was 0.484. For the same compound, the relative viability (NCI-H2228; first compound 2.53 µM) was 0.659, the relative viability (NCI-H1915; first compound 0.08 µM) was 0.637 and the relative viability (NCI-H1915; first compound 0.253 µM) was 0.627. For the same compound, the relative viability (NCI-H1915; first compound 0.8 µM) was 0.603, the relative viability (NCI-H1915; first compound 2.53 µM) was 0.649 and the relative viability (HOP-62; first compound 0.08 µM) was 0.903. The relative viability (HOP-62; first compound 0.253 µM) was 0.871, the relative viability (HOP-62; first compound 0.8 µM) was 0.878 and the relative viability (HOP-62; first compound 2.53 µM) was 0.931. The relative viability (PC-3 [JPC-3]; first compound 0.08 µM) was 0.789, the relative viability (PC-3 [JPC-3]; first compound 0.253 µM) was 0.791 and the relative viability (PC-3 [JPC-3]; first compound 0.8 µM) was 0.737. The relative viability (PC-3 [JPC-3]; first compound 2.53 µM) was 0.89, the relative viability (HCC-78; first compound 0.08 µM) was 0.358 and the relative viability (HCC-78; first compound 0.253 µM) was 0.332. It also gave a relative viability (HCC-78; first compound 0.8 µM) of 0.356, a relative viability (HCC-78; first compound 2.53 µM) of 0.323 and a relative viability (NCI-H1975; first compound 0.08 µM) of 0.783. The relative viability (NCI-H1975; first compound 0.253 µM) was 0.696, the relative viability (NCI-H1975; first compound 0.8 µM) was 0.566 and the relative viability (NCI-H1975; first compound 2.53 µM) was 0.661. The relative viability (NCI-H1792; first compound 0.08 µM) was 0.803, the relative viability (NCI-H1792; first compound 0.253 µM) was 0.583 and the relative viability (NCI-H1792; first compound 0.8 µM) was 0.563. For the same compound, the relative viability (NCI-H1792; first compound 2.53 µM) was 0.751, the relative viability (NCI-H1755; first compound 0.08 µM) was 0.716 and the relative viability (NCI-H1755; first compound 0.253 µM) was 0.685. For the same compound, the relative viability (NCI-H1755; first compound 0.8 µM) was 0.715, the relative viability (NCI-H1755; first compound 2.53 µM) was 0.793 and the relative viability (NCI-H2126; first compound 0.08 µM) was 0.769. It also gave a relative viability (NCI-H2126; first compound 0.253 µM) of 0.718, a relative viability (NCI-H2126; first compound 0.8 µM) of 0.609 and a relative viability (NCI-H2126; first compound 2.53 µM) of 0.684. For the same compound, the relative viability (HCC-15; first compound 0.08 µM) was 0.644, the relative viability (HCC-15; first compound 0.8 µM) was 0.759 and the relative viability (HCC-15; first compound 2.53 µM) was 0.781. For the same compound, the relative viability (NCI-H358; first compound 0.08 µM) was 0.833, the relative viability (NCI-H358; first compound 0.253 µM) was 0.531 and the relative viability (NCI-H358; first compound 0.8 µM) was 0.725. It also gave a relative viability (NCI-H358; first compound 2.53 µM) of 0.824, a relative viability (LXF-289; first compound 0.08 µM) of 0.82 and a relative viability (LXF-289; first compound 0.253 µM) of 0.794. It also gave a relative viability (LXF-289; first compound 0.8 µM) of 0.871, a relative viability (LXF-289; first compound 2.53 µM) of 0.839 and a relative viability (NCI-H647; first compound 0.08 µM) of 0.665. It also gave a relative viability (NCI-H647; first compound 0.253 µM) of 0.584, a relative viability (NCI-H647; first compound 0.8 µM) of 0.755 and a relative viability (NCI-H647; first compound 2.53 µM) of 0.725. The relative viability (LC-2-ad; first compound 0.08 µM) was 0.817, the relative viability (LC-2-ad; first compound 0.8 µM) was 1.13 and the relative viability (LC-2-ad; first compound 2.53 µM) was 0.79. For the same compound, the relative viability (A-427; first compound 0.08 µM) was 0.54, the relative viability (A-427; first compound 0.253 µM) was 0.425 and the relative viability (A-427; first compound 0.8 µM) was 0.501. The relative viability (A-427; first compound 2.53 µM) was 0.579, the relative viability (SK-LU-1; first compound 0.08 µM) was 0.38 and the relative viability (SK-LU-1; first compound 0.253 µM) was 0.31. The relative viability (SK-LU-1; first compound 0.8 µM) was 0.344, the relative viability (SK-LU-1; first compound 2.53 µM) was 0.325 and the relative viability (NCI-H2347; first compound 0.253 µM) was 0.384. The relative viability (NCI-H2347; first compound 0.8 µM) was 0.49 and the relative viability (NCI-H2347; first compound 2.53 µM) was 0.259.
